In PMC10155203 (Molecular Pharmaceutics, 2023):
Values joined by “and” are separate entries in the source; they are usually repeats but may differ in a detail not shown here. Equal values may be shown once. Read-outs that look alike come from different tables or passages of the source.

How the values were obtained:
CYP2D6 = details: cited from earlier work
[1] = TIM-1 dynamic in vitro gastrointestinal model, bioaccessibility of 75 mg encorafenib capsule; format: in vitro ADME; details: for time of maximum bioaccessibility / maximum bioaccessibility / total bioaccessibility (cumulative): TIM-1, 75 mg capsule; for maximum bioaccessibility / total bioaccessibility (cumulative): mean ± SD
Source text: To investigate the bioaccessibility under the different test conditions (i.e., in the fasted state, fed state, and with the use of a PPI), a dynamic in vitro GI model TIM-1 (TNO; Zeist, Netherlands) was used, which has previously been described and detailed pictorially.[25],[26] The bioaccessibility of the drug refers to the amount of drug available for drug absorption. The two filters, which are located at the end of the jejunal and ileal compartment, will capture the dissolved fraction of drug as released from the drug formulation with the help of a filtration process. The dissolved fraction of drug is the sum of drug molecules dissolved in the aqueous media (i.e., molecularly dissolved and encapsulated in the colloidal structures such as micelles). The TIM-1 model is a complex in vitro GI simulator that models the dynamic processes and conditions present in the lumen of the gastric and small intestinal regions of the GI tract. The TIM-1 system consists of a stomach, duodenum, jejunum, and ileum compartment. For more information about the setup of the TIM-1 model, the reader is referred to external literature.[27] After dosing the drug product to the stomach compartment, the computer-controlled system controls the transit of the drug formulation to the intestinal compartments at a rate that reflects the in vivo transit conditions observed in fasted, fed, and PPI states. At the end of the jejunal and ileal compartments, a lipid filtration system is installed to separate the dissolved amount of drug from these compartments and evaluate the amount of drug available for drug absorption (i.e., the bioaccessible fraction of drug). The TIM-1 model is programmed to evaluate drug product behavior in fasted, fed, and PPI conditions.[19],[28],[29] Depending on the chosen clinical condition (PPI, fed), specific experimental protocol is executed. Fasted state is simulated by implementing a predefined pH curve controlled by secretion of 1 M HCl into the gastric compartment. The gastric pH starts at pH 3 (including the coadministered glass of water) and will decrease to pH 1.7 as gastric secretion will acidify the gastric content. When the fasted PPI state is simulated, gastric content is adjusted to pH 4.5, and only water is secreted into the stomach compartment to maintain constant pH. During fed state studies, gastric pH starts at pH 6.5 and will decrease to basic fasted conditions (pH 1.7) as the food empties the stomach, and gastric secretion will be activated. Due to secretion and transit, the volumes and pH remain constant in the intestinal compartments. […] For more information about the TIM-1 settings and the determination of bioaccessible fraction, the reader is referred to external literature.[27],[28] The bioaccessible fraction was determined by withdrawing samples from the filtrate (at the end of the jejunum and ileum compartment) and these samples were, subsequently, analyzed by HPLC. The expression of the bioaccessible fraction can be depicted in a cumulative or noncumulative order to observe how much drug will become available as a function of time. […]

[2] = human plasma; cited from earlier work
[3] = cited from earlier work; for median Tmax: humans, single oral dose
[4] = Study 2: PPI (rabeprazole) interaction clinical study, single oral dose of encorafenib, plasma PK and safety; format: in vivo, human; details: for Tmax: median (range); for Vd/F: read-out: Vz/F; for CL/F: mean ± SD
Description: Both studies were conducted at the Celerion Clinical Research Unit in Lincoln, NE. The trial protocols and informed consent documentation were reviewed and approved by the institutional review boards at the center. These studies were conducted in compliance with the ethical principles originating in or derived from the Declaration of Helsinki and in compliance with all International Council for Harmonization Good Clinical Practice Guideline.
The AEs described were consistent with the known safety profile of encorafenib.
Additionally, participants were instructed not to crush, split, or chew the study drug. […]
The actual sample collection times were used for the PK parameter analysis.
The overall safety profile was characterized by laboratory test abnormalities, physical examination, vital signs, ECGs, and AEs. […] Triplicate ECGs were also measured at the end of the studies or upon early termination.
These were back-transformed to obtain the GMRs and corresponding 90% CIs on the original scale. The ratios were expressed as a percentage relative to the reference treatment.

CYP2C19 = tested on: CYP2C19; design: method as in PMID 27693678; details: fitted using in vivo data; cited from earlier work
[5] = single radiolabeled dose of 100 mg
[6] = study 2, encorafenib 100 mg + rabeprazole
[7] = study 2, encorafenib 100 mg + rabeprazole vs alone
[8] = study 2, encorafenib 100 mg alone
[9] = study 2, encorafenib 300 mg alone

## COC(=O)N[C@@H](C)CNc1nccc(-c2cn(C(C)C)nc2-c2cc(Cl)cc(NS(C)(=O)=O)c2F)n1 [encorafenib, Encorafenib]
CYP2D6
  share of metabolism by CYP2D6: 1%
[1]; PPI
  time of maximum bioaccessibility: 1.5 h
  maximum bioaccessibility: 18% and 18 ± 4%
  total bioaccessibility (cumulative): 83% and 83 ± 6%
[1]; fasted
  time of maximum bioaccessibility: 1.5 h
  maximum bioaccessibility: 16% and 16 ± 4%
  total bioaccessibility (cumulative): 77% and 77 ± 4%
[1]; fed
  time of maximum bioaccessibility: 4 h
  maximum bioaccessibility: 13% and 13 ± 0%
  total bioaccessibility (cumulative): 80% and 80 ± 1%
[1]; TIM-1, in the 3 conditions (fasted, fed, PPI)
  bioaccessible fraction: ≥ 80%
[2]
  in vitro protein binding: 86%
[3]; dose range of 50 to 700 mg QD after a single dose
  dose proportionality: approximately dose proportional
[3]; geometric mean (coefficient of variation 70%)
  apparent volume of distribution: 164 L
[3]; fasted state
  median Tmax: approximately 2 h
[3]; fed state
  median Tmax: ~4 h
[3]; oral
  dose absorbed: at least 86%
[3]; [5]
  administered dose recovered in feces: 47%
  administered dose recovered in feces unchanged: 5%
  administered dose recovered in urine: 47%
  administered dose recovered in urine unchanged: 2%
[4]; 300 mg dose compared with 100 mg dose, healthy participants
  tolerability: tolerated with more difficulty
[4]; human, plasma, oral, 100 mg
  AUC(0-inf): 4140 ng·h/mL
  AUC(0-t): 4120 ng·h/mL
  Cmax: 1040 ng/mL
  Vd/F: 247 ± 208 L
[4]; human, plasma, oral, 100 mg, study 2, encorafenib 100 mg alone, read-out: Tmax
  Tmax: 1.5 h
[4]; human, plasma, oral, 100 mg, read-out: t1/2 (converted)
  half-life: 452 ± 455 min
[4]; human, plasma, oral, 300 mg
  AUC(0-inf): 14800 ng·h/mL
  AUC(0-t): 14700 ng·h/mL
  Cmax: 3900 ng/mL
  Vd/F: 470 ± 339 L
[4]; human, plasma, oral, 300 mg, study 2, encorafenib 300 mg alone, read-out: Tmax
  Tmax: 1.5 h
[4]; human, plasma, oral, 300 mg, read-out: t½ (converted)
  half-life: 953 ± 698 min
[4]; human, plasma, oral, study 2, encorafenib 100 mg + rabeprazole, read-out: Tmax
  Tmax: 2 h
[4]; study 2
  changes in vital signs, laboratory values, or ECG measurements: No clinically significant changes
  participants reporting feeling hot: 53%
  participants reporting flushing: 80%
  participants reporting headache: 93%
[4]; study 2 (headache, nausea, myalgia)
  number of AEs of grade 2/moderate severity: 3 AEs
[4]; [6]
  participants reporting AEs: 82%
  CL/F: 26.31 ± 9.1417 L/h
[4]; [7]
  mean change in AUCinf with PPI coadministration: < 10%
  mean change in AUClast with PPI coadministration: < 10%
  mean change in Cmax with PPI coadministration: < 10%
[4]; study 2, encorafenib 100 mg + rabeprazole, 11 participants
  number of AEs reported: 23 AEs
[4]; [8]
  participants reporting AEs: 90%
  CL/F: 25.33 ± 8.0601 L/h
  Tmax: 1.503 (1.01, 2.00) h
[4]; study 2, encorafenib 100 mg alone, 10 participants
  number of AEs reported: 24 AEs
[4]; [9]
  participants reporting AEs: 100%
  CL/F: 20.59 ± 3.9043 L/h
[4]; study 2, encorafenib 300 mg alone, 15 participants
  number of AEs reported: 106 AEs
[4]; study 2, of 15 participants
  participants who discontinued due to an AE: 1 participants
[4]; study 2, overall
  participants reporting AEs: 15 of 15
CYP2C19
  gut CYP2C19 Km: 7.51 mg/L
  gut CYP2C19 Vmax: 0.00504 mg/s
  liver CYP2C19 Km: 7.51 mg/L
  liver CYP2C19 Vmax: 0.00504 mg/s
